# Measured values as given in patent US4564609A, “4-Substituted-2-azetidinone compound, process of producing the compounds, and medicaments containing the compounds” (Yamanouchi Pharmaceutical Co., Ltd., priority 1983, dated 1986).
# Where two headings read alike, the source gives them in different places.
# Experiments:
# male mice [1] = settings: mouse, in vivo, iv
# male mice [2] = experiment: Pentobarbital-induced hypothermia (Experiment 1); type: in vivo; settings: i.v. 10 min after pentobarbital 55 mg/kg i.p.; rectal temperature 30 min after test compound; dose reducing hypothermia of control group by 1.5° C.
# Procedure: Pentobarbital-induced hypothermia:
# Nine male mice weighing 18 to 22 g were used for each dosage of the test compounds. Mice were given i.v. various doses of TRH or tested compounds 10 min. after pentobarbital (55 mg/kg i.p.). Rectal temperature was measured before pentobarbital dosing and immediately before and 30 min. after the test compounds. Effects of test compounds were evaluated as ED1.5° C., the dose required to reduce by 1.5° C. pentobarbital-hypothermia of control group of mice which received only pentobarbital and saline.
# male mice [3] = experiment: Disturbance of consciousness induced by concussive head injury (Experiment 2); type: in vivo; settings: i.v. 10 min before concussive head injury, dose shortening spontaneous movement time of control group by 50%; for ED50: Mus musculus, iv, read-out: Onset time of spontaneous movement ED50%
# Procedure: Disturbance of consciousness induced by concussive head injury:
# Nine male mice weighing 18 to 22 g were used for each dosage of the test compounds. An acrylate weight containing lead (20.5 g, 19 mm in both diameter and thickness) was dropped to the head of mice from a 18 cm height. Mice were induced loss of consciousness and they remained motionless for some period. The time from the shock up to the onset of spontaneous movement was recorded as the spontaneous movement time. Test compounds were administered intravenously 10 min. before adding concussive head injury and effects of test compounds were evaluated as ED50%, the dose required to shorten by 50% the spontaneous movement time of control group.
# male mice [4] = experiment: Acute toxicity (Experiment 3); settings: intravenous
Structure (SMILES),LD50 (i.v.) (male mice [1]),Reversal effect against pentobarbital-hypothermia ED1.5° C. (male mice [2]) [mg/kg],ED50 (male mice [3]) [mg/kg],LD50 (i.v.) (male mice [4]) [mg/kg],Onset time of spontaneous movement ED50% (male mice [3]) [mg/kg]
"NC(=O)[C@@H]1CCCN1C(=O)[C@H](Cc1c[nH]cn1)NC(=O)[C@@H]1CC(=O)N1 [Example 1, N^α -[(S)-2-azetidinone-4-carbonyl]-L-histidyl-L-prolinamide]",higher than 1493 mg/kg,0.01,0.1,,
"O=C1C[C@@H](C(=O)N[C@@H](Cc2c[nH]cn2)C(=O)N2CCC[C@H]2C(=O)NCCO)N1 [Example 4, N^α -[(S)-2-azetidinone-4-carbonyl]-L-histidyl-N-(2-hydroxyethyl)-L-prolinamide]",,,0.35,,
"NC(=O)[C@@H]1CSCN1C(=O)[C@H](Cc1c[nH]cn1)NC(=O)[C@@H]1CC(=O)N1 [Example 6, 3-[N^α -[(S)-2-azetidinone-4-carbonyl]-L-histidyl]-L-thiazolidine-4-carboxamide]",,0.05,,,
"Cn1cnc(CC(NC(=O)C2CC(=O)N2)C(=O)N2CCCC2C(N)=O)c1 [Example 19, N^α -[(s)-2-azetidinone-4-carbonyl]-N^.tau. -methyl-L-histidyl-L-prolinamide]",,0.004,,,
"NC(=O)[C@@H]1CCCN1C(=O)[C@H](Cc1cnc[nH]1)NC(=O)[C@@H]1CCC(=O)N1 [TRH, L-pyroglutamyl-L-histidyl-L-prolinamide, reference compound]",,0.1,,751,2.5
